Experimental data: US7423159B2, “Agent for preventing or treating neuropathy” (Takeda Pharmaceutical Company Limited, priority 2002, dated 2008)

Key:
rat C6 glioma cells = experiment: GDNF production promoting action in rat C6 glioma cells (ELISA of culture supernatant); type: cell-based; conditions: concentration which causes 50% increase of GDNF relative to the control group, cultured 2 days with test compound, GDNF in culture supernatant by ELISA
Experimental: Using rat C6 glioma cells, the GDNF production promoting action of the compound of the present invention was evaluated.
Rat C6 glioma cells (ATCC) were grown in Dulbecco's Modified Eagle's Medium (DMEM) containing 10% FBS (Fetal Bovine Serum) in a collagen type 1 coated 75 cm^2 culture flask (SUMITOMO BAKELITE Co., Ltd.) until near confluent, detached by trypsin treatment and washed once with DMEM containing 10% FBS.
The cells after washing were diluted with 10% FBS-containing DMEM to a concentration of 5×10^4/mL and seeded at 0.3 mL/well in each well of collagen type 1 coated 48 well culture dish (SUMITOMO BAKELITE Co., Ltd.). After 3 days, the culture in the culture dish was placed in a 1% BSA (bovine serum albumin, Sigma)-containing DMEM medium supplemented with various concentrations of test compound, and further cultured for 2 days. The culture supernatant was recovered and preserved at −80° C. until measurement of GDNF.
The content of GDNF in the culture supernatant was measured by the following ELISA Method.
Anti-GDNF antibody (MAB212, R&D) was diluted with TBS (Tris buffered physiological saline: 25 mmol/L Tris-HCl (pH 8.0), 150 mmol/L NaCl) to 2 μg/mL and dispensed at 0.1 mL/well to each well of a 96-well immunoplate. The 96-well immunoplate was incubated overnight at 4° C. and washed once with TBS containing Tween 20 at 0.05% (hereinafter to be abbreviated as TBST). A blocking solution (TBS containing 1% BSA and 5% sucrose) was added at 0.2 mL/well to each well after washing, and the plate was incubated at room temperature for 1 hr., after which each well was washed twice with TBST. The culture supernatant (0.1 mL) of the aforementioned C6 cells was added to each well after washing and the plate was incubated at room temperature for 3 hrs., after which the wells were washed 5 times with TBST. The 500-fold diluted anti-GDNF antibody (G2791, Promega) was added by 0.1 mL to each well after washing, incubated at room temperature for 2 hrs. and washed 5 times with TBST. A 5000-fold diluted horseradish peroxidase-labeled anti-chicken IgY antibody (G1351, Promega) was added at 0.1 mL/well to each well after washing, incubated at room temperature for 2 hrs. and washed 5 times with TBST. A substrate solution (TMB substrate solution, BIO-RAD) was added at 0.1 mL/well to each well after washing and allowed to develop color at room temperature for 8 min. To stop the reaction, 0.1 mL of 1 mol/L phosphoric acid was added to each well in coloring developing reaction. The absorbance of the reaction solution at 450 nm wavelength was measured.
In the same manner as above except the test compound was not used, the ELISA Method was performed and this was used as a control group.
Using various concentrations of GDNF (Promega), ELISA Method was performed in the same manner as above and standard line was prepared.
From the aforementioned absorbance and standard line, GDNF content in a sample was calculated and the concentration (EC50), which causes 50% increase of GDNF relative to the control group was calculated from the regression line.

[1] = Rattus norvegicus, C6 glioma, 48 h

| Compound | EC50 (rat C6 glioma cells; [1]) [nM] | melting point [°C] | EC50 (rat C6 glioma cells) [nM] |
| --- | --- | --- | --- |
| CCCC(=O)NCc1ccc(NC(=O)/C=C/c2cnn(C)c2-c2ccc(F)cc2)cc1 [Example 140, (2E)-N-{4-[(Butyrylamino)methyl]phenyl}-3-[5-(4-fluorophenyl)-1-methyl-1H-pyrazol-4-yl]acrylamide] | 220 | 259 to 260 | – |
| Cc1cccc(C(O)c2ccc(NC(=O)/C=C/c3cnn(C)c3-c3ccc(F)cc3)cc2)n1 (stereo not shown) [Example 50, (2E)-3-[5-(4-Fluorophenyl)-1-methyl-1H-pyrazol-4-yl]-N-{4-[hydroxy(6-methyl-2-pyridinyl)methyl]phenyl}acrylamide] | 400 | – | – |
| CCOP(=O)(Cc1ccc(NC(=O)/C=C/c2snnc2-c2ccc(F)cc2)cc1)OCC [Example 71, (2E)-N-[4-(Diethylphosphonomethyl)phenyl]-3-[4-(4-fluorophenyl)-1,2,3-thiadiazol-5-yl]acrylamide] | 1700 | 173 to 175 | – |
| CC(=O)Cc1ccc(NC(=O)/C=C/c2cnn(C)c2-c2ccc(F)cc2)cc1 [Example 121, (2E)-3-[5-(4-Fluorophenyl)-1-methyl-1H-pyrazol-4-yl]-N-[4-(2-oxopropyl)phenyl]acrylamide] | 180 | 186 to 187 | – |
| (2E)-3-[5-(4-Fluorophenyl)-1-methyl-1H-pyrazol-4-yl]-N-[4-(1-pyrrolidinylmethyl) phenyl]acrylamide [Example 193] | – | – | 160 |
| CCOP(=O)(Cc1ccc(NC(=O)/C=C/c2cnn(C)c2-c2ccccc2)cc1)OCC [Example 11, (2E)-N-[4-(Diethylphosphonomethyl)phenyl]-3-(1-methyl-5-phenyl-1H-pyrazol-4-yl)acrylamide] | 900 | 239 to 240 | – |
| Cn1ncc(/C=C/C(=O)Nc2ccc(CCc3cscn3)cc2)c1-c1ccc(F)cc1 [Example 91, (2E)-3-[5-(4-Fluorophenyl)-1-methyl-1H-pyrazol-4-yl]-N-{4-[2-(1,3-thiazol-4-yl)ethyl]phenyl}acrylamide] | 490 | 211 to 212 | – |
| Cn1ncc(/C=C/C(=O)Nc2ccc(-n3ccnc3)cc2)c1-c1ccc(F)cc1 [Example 195] | – | – | 120 |
| COP(=O)(Cc1ccc(NC(=O)/C=C/c2cnn(C)c2-c2ccc(F)cc2)cc1)OC [Example 1, (2E)-N-[4-(dimethylphosphonomethyl)phenyl]-3-[5-(4-fluorophenyl)-1-methyl-1H-pyrazol-4-yl]acrylamide] | 200 | 209 to 210 | – |
| Cc1nccn1Cc1ccc(NC(=O)/C=C/c2cnn(C)c2-c2ccc(F)cc2)cc1 [Example 190, (2E)-3-[5-(4-Fluorophenyl)-1-methyl-1H-pyrazol-4-yl]-N-{4-[(2-methyl-1H-imidazol-1-yl)methyl]phenyl}acrylamide] | 590 | 232 to 233 | – |
| CCOP(=O)(Cc1ccc(NC(=O)/C=C/c2cncn2-c2ccc(F)cc2)cc1)OCC [Example 61, (2E)-N-[4-(Diethylphosphonomethyl)phenyl]-3-[1-(4-fluorophenyl)-1H-imidazol-5-yl]acrylamide] | 400 | 165 to 166 | – |
| CCCCC1(CC)COP(=O)(Cc2ccc(NC(=O)/C=C/c3cnn(C)c3-c3ccc(F)cc3)cc2)OC1 (stereo not shown) [Example 27, (2E)-N-{4-[(5-Butyl-5-ethyl-2-oxide-1,3,2-dioxaphosphinan-2-yl)methyl]phenyl}-3-[5-(4-fluorophenyl)-1-methyl-1H-pyrazol-4-yl]acrylamide] | – | – | 500 |
| Cn1ncc(/C=C/C(=O)Nc2ccc(Cc3nnco3)cc2)c1-c1ccc(F)cc1 [Example 129, (2E)-3-[5-(4-Fluorophenyl)-1-methyl-1H-pyrazol-4-yl]-N-[4-(1,3,4-oxadiazol-2-ylmethyl)phenyl]acrylamide] | – | 223 to 224 | – |
| Cn1ncc(/C=C/C(=O)Nc2ccc(Cc3nc(C(=O)O)cs3)cc2)c1-c1ccc(F)cc1 [Example 131, 2-[4-({(2E)-3-[5-(4-fluorophenyl)-1-methyl-1H-pyrazol-4-yl]prop-2-enoyl}amino)benzyl]-1,3-thiazole-4-carboxylic acid] | – | 226 to 227 | – |
| O=C(O)Cc1ccc(NC(=O)CCc2cnn(-c3ccccc3)c2-c2ccccc2)cc1 [Example 83, (4-{[3-(1,5-diphenyl-1H-pyrazol-4-yl)propanoyl]amino}phenyl)acetic acid] | – | 199 to 201 | – |
| CCOP(=O)(Cc1ccc(NC(=O)/C=C/c2cnn(C)c2-c2ccc(F)cc2)c(C)c1)OCC | – | 154 to 155 | – |
| CCOP(=O)(Cc1ccc(NC(=O)/C=C/c2cnn(C)c2-c2cccc(Cl)c2)cc1)OCC | – | 214 to 216 | – |
| Cn1ncc(/C=C/C(=O)Nc2ccc(Cn3ncc4ccccc43)cc2)c1-c1ccc(F)cc1 [Example 176, (2E)-3-[5-(4-Fluorophenyl)-1-methyl-1H-pyrazol-4-yl]-N-[4-(1H-indazol-1-ylmethyl)phenyl]acrylamide] | – | 146 to 148 | – |
| CCOP(=O)(CCc1ccc(NC(=O)/C=C/c2cnn(C)c2-c2ccc(F)cc2)cc1)OCC | – | 157 to 158 | – |
| Cn1ncc(/C=C/C(=O)Nc2ccc(Cc3n[nH]c(=O)o3)cc2)c1-c1ccc(F)cc1 [Example 86, (2E)-3-[5-(4-Fluorophenyl)-1-methyl-1H-pyrazol-4-yl]-N-{4-[(5-oxo-4,5-dihydro-1,3,4-oxadiazol-2-yl)methyl]phenyl}acrylamide] | – | 262 to 263 | – |
| COP(=O)(Cc1ccc(NC(=O)/C=C/c2cnn(C)c2-c2cccc3ccccc23)cc1)OC | – | 207 to 209 | – |
| Cn1ncc(/C=C/C(=O)Nc2ccc(CSC(C)(C)C)cc2)c1-c1ccc(F)cc1 [Example 211, (2E)-N-{4-[(tert-Butylthio)methyl]phenyl}-3-[5-(4-fluorophenyl)-1-methyl-1H-pyrazol-4-yl]acrylamide] | – | 166 to 168 | – |
| Cn1ncc(/C=C/C(=O)Nc2ccc(CC(C)(C)O)cc2)c1-c1ccc(F)cc1 [Example 114, (2E)-3-[5-(4-Fluorophenyl)-1-methyl-1H-pyrazol-4-yl]-N-[4-(2-hydroxy-2-methylpropyl)phenyl]acrylamide] | – | 188 to 189 | – |
| Cn1ncc(/C=C/C(=O)Nc2ccc(CS(=O)(=O)C(C)(C)C)cc2)c1-c1ccc(F)cc1 [Example 224, (2E)-N-{4-[(tert-Butylsulfonyl)methyl]phenyl}-3-[5-(4-fluorophenyl)-1-methyl-1H-pyrazol-4-yl]acrylamide] | – | 260 to 261 | – |
| CCn1nc(Cc2ccc(NC(=O)/C=C/c3cnn(C)c3-c3ccc(F)cc3)cc2)oc1=O [Example 120, (2E)-N-{4-[(4-Ethyl-5-oxo-4,5-dihydro-1,3,4-oxadiazol-2-yl)methyl]phenyl}-3-[5-(4-fluorophenyl)-1-methyl-1H-pyrazol-4-yl]acrylamide] | – | 149 to 150 | – |
| Cn1ncc(/C=C/C(=O)Nc2ccc(CCc3nnco3)cc2)c1-c1ccc(F)cc1 [Example 89, (2E)-3-[5-(4-Fluorophenyl)-1-methyl-1H-pyrazol-4-yl]-N-{4-[2-(1,3,4-oxadiazol-2-yl)ethyl]phenyl}acrylamide] | – | 177 to 178 | – |
| CCc1nnc(CCc2ccc(NC(=O)/C=C/c3cnn(C)c3-c3ccc(F)cc3)cc2)o1 [Example 88, (2E)-N-{4-[2-(5-Ethyl-1,3,4-oxadiazol-2-yl)ethyl]phenyl}-3-[5-(4-fluorophenyl)-1-methyl-1H-pyrazol-4-yl]acrylamide] | – | 167 to 168 | – |
| CCc1csc(Cc2ccc(NC(=O)/C=C/c3cnn(C)c3-c3ccc(F)cc3)cc2)n1 [Example 125, (2E)-N-{4-[(4-ethyl-1,3-thiazol-2-yl)methyl]phenyl}-3-[5-(4-fluorophenyl)-1-methyl-1H-pyrazol-4-yl]acrylamide] | – | 211 to 212 | – |
| CCOP(=O)(Cc1ccc(NC(=O)/C=C/c2cnn(C)c2-c2ccc(Br)cc2)cc1)OCC | – | 229 to 231 | – |
